Data reported in patent US20230150974A1 (Foghorn Therapeutics Inc., priority 2020, published 2023).

Key:
HiBiT-BRM = biological target: T1, HiBiT-BRM (Homo sapiens, UniProt P51531); assay: HiBiT-BRM cell-based degradation assay (Nano-Glo HiBiT Lytic Detection); conditions: HeLa cells expressing HiBiT-BRM, 24 h; for DC50: read-out: BRM HiBit Degradation IC50
T1 construct: expressed in transfected cells
How it was run: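 Luminescence from HiBiT–LgBiT complementation in lysates of a stable HiBiT-BRM HeLa line measured after 24 h compound exposure. Degradation expressed as percent relative to DMSO-treated cells and cells given 2 μM of a known BRM/BRG1 degrader.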

HiBit-BRG1 = biological target: T2, HiBit-BRG1 (Homo sapiens, UniProt P51532); assay: HiBit-BRG1 cell-based degradation assay (Nano-Glo HiBiT Lytic Detection); conditions: HeLa cells expressing HiBit-BRG1 and LgBit, 24 h; for DC50: read-out: BRG1 HiBit Degradation IC50; for Dmax: read-out: BRG1 HiBit Degradation Maximum (%)
T2 construct: expressed in transfected cells
T2 sequence (P51532 whole entry): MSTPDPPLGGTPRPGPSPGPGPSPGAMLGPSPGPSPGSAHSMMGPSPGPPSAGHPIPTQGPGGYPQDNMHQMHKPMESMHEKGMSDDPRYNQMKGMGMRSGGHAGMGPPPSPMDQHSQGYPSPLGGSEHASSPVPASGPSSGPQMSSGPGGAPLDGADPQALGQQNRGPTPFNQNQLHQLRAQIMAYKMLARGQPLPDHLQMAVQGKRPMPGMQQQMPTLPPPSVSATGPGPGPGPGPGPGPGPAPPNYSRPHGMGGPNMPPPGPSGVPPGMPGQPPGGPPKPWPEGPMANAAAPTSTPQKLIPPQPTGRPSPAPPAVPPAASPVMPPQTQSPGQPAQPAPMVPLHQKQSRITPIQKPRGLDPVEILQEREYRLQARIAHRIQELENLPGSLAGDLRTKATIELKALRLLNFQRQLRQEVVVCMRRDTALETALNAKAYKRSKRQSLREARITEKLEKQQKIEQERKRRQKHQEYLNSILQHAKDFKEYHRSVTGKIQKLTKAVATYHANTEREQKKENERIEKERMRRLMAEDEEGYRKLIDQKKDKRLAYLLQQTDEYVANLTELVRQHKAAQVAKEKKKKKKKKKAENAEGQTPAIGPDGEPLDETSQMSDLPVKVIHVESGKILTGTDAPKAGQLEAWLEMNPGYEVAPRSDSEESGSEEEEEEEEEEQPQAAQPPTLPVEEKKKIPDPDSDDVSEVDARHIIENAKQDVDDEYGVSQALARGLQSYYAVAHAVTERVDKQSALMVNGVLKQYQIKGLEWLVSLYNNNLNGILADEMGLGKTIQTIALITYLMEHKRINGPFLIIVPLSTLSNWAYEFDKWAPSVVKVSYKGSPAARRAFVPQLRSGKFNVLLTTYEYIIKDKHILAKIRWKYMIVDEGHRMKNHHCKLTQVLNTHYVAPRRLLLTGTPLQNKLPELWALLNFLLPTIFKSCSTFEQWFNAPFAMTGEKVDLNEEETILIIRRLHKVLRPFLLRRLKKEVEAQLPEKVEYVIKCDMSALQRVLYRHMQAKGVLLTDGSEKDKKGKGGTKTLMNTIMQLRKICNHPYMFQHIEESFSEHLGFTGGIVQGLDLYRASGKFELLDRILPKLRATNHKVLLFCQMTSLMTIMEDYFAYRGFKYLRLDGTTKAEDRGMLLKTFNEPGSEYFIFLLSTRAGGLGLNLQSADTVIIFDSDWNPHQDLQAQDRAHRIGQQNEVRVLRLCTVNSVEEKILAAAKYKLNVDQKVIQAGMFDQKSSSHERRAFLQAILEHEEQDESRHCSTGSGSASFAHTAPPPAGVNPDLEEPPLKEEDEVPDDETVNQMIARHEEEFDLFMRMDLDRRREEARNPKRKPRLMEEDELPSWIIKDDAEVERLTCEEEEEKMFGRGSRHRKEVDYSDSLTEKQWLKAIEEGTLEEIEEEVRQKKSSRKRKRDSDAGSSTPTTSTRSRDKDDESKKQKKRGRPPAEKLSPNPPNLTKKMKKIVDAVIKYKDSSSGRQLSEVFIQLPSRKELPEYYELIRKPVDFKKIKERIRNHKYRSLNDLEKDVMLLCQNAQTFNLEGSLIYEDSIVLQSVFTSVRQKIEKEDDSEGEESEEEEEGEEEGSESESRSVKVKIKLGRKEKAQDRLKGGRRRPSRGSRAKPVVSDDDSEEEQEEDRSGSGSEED
How it was run: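 HeLa cells stably expressing HiBiT-BRG1 plus LgBit, 5000/well, treated 24 h, then lysed with Nano-Glo HiBiT lytic reagent and luminescence read. % degradation normalised between DMSO (high control) and 2 μM reference BRM/BRG1 degrader (low control).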

T1 sequence (P51531 whole entry): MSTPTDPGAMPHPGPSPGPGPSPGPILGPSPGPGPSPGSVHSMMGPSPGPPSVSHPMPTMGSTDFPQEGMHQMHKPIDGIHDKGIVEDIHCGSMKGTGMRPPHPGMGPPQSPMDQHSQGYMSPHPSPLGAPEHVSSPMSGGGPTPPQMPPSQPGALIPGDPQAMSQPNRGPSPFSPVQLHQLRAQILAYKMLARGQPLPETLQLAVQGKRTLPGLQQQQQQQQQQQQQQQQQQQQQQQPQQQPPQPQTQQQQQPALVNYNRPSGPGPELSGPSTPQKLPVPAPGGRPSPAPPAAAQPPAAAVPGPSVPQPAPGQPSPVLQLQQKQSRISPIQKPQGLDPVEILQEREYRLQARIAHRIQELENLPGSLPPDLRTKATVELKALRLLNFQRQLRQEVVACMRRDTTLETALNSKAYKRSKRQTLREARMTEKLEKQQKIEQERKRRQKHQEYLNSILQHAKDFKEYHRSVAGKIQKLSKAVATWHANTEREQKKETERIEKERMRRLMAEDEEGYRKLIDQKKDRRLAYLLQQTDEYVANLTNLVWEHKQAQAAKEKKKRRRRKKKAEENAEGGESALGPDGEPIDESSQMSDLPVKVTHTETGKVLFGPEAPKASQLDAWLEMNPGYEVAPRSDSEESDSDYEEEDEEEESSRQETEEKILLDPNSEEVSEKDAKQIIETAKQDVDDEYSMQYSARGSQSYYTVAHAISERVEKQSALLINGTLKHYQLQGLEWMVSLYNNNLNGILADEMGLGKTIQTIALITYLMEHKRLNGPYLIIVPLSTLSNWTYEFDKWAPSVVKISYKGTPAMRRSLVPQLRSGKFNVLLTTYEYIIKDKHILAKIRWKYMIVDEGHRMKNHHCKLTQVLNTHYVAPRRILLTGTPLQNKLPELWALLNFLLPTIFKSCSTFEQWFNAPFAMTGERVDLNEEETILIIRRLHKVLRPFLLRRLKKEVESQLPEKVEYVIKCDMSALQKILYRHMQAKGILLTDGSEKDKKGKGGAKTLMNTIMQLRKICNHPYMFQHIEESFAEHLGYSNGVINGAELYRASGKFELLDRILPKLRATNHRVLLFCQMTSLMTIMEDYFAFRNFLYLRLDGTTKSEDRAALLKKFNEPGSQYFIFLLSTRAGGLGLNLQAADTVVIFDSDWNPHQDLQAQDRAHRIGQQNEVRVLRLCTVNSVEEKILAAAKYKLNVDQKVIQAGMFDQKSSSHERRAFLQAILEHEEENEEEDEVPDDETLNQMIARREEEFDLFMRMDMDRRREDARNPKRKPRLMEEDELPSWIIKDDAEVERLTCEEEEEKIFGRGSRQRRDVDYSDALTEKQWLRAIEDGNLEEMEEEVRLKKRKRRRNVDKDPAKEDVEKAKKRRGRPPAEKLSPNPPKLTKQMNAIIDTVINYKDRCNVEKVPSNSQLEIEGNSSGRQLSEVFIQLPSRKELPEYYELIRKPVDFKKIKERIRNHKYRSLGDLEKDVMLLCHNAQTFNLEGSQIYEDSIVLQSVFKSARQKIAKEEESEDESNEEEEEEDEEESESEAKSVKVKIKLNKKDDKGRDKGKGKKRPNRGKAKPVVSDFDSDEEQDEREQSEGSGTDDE

Q: Which “BRM HiBit Degradation Maximum (%)” value (HiBiT-BRM) does the source give for `Cc1ncsc1-c1ccc(CNC(=O)[C@@H]2C[C@@H](O)CN2C(=O)[C@@H](NC(=O)CCCCCCCCCCCCCCCC(=O)NCc2ccc(CCOc3cc(-c4ccccc4O)nnc3N)cc2)C(C)C)cc1` [Compound 173, N1-(4-(2-((3-amino-6-(2-hydroxyphenyl)pyridazin-4-yl)oxy)ethyl)benzyl)-N17-((S)-1-((2S,4R)-4-hydroxy-2-((4-(4-methylthiazol-5-yl)benzyl)carbamoyl)pyrrolidin-1-yl)-3-methyl-1-oxobutan-2-yl)heptadecanediamide] here?
A: The value was “B (“B” indicates maximum degradation ≥50%)”.

Q: And the DC50 (HiBiT-BRM)?
A: The DC50 was > 100 nM.

Q: And the DC50 (HiBit-BRG1)?
A: The DC50 was > 1000 nM.

Q: And the Dmax (HiBit-BRG1)?
A: Its Dmax is < 50%.

Q: For `Cc1ncsc1-c1ccc([C@H](C)NC(=O)[C@@H]2C[C@@H](O)CN2C(=O)[C@@H](c2cc(OCCN3CCN(CC(=O)NCc4ccc(CCOc5cc(-c6ccccc6O)nnc5N)cc4)CC3)no2)C(C)C)cc1` [Compound 174, (2S,4R)-1-((R)-2-(3-(2-(4-(2-((4-(2-((3-amino-6-(2-hydroxyphenyl)pyridazin-4-yl)oxy)ethyl)benzyl)amino)-2-oxoethyl)piperazin-1-yl)ethoxy)isoxazol-5-yl)-3-methylbutanoyl)-4-hydroxy-N-((S)-1-(4-(4-methylthiazol-5-yl)phenyl)ethyl)pyrrolidine-2-carboxamide], which “BRM HiBit Degradation Maximum (%)” value (HiBiT-BRM) is on record?
A: The value was “A (“A” indicates maximum degradation ≥75%)”.

Q: What about the DC50 (HiBiT-BRM) of the same compound?
A: The DC50 was > 10 nM.

Q: And the DC50 (HiBit-BRG1)?
A: The DC50 was > 100 nM.

Q: And the Dmax (HiBit-BRG1)?
A: The Dmax was > 75%.

Q: Which “BRM HiBit Degradation Maximum (%)” value (HiBiT-BRM) does the source give for `Cc1ncsc1-c1ccc([C@H](C)NC(=O)[C@@H]2C[C@@H](O)CN2C(=O)[C@@H](c2cc(OCCN3CCN(CCC(=O)NCc4ccc(CCOc5cc(-c6ccccc6O)nnc5N)cc4)CC3)no2)C(C)C)cc1` [Compound 175, (2S,4R)-1-[(2R)-2-[3-(2-[4-[2-([[4-(2-[[3-amino-6-(2-hydroxyphenyl)pyridazin-4-yl]oxy]ethyl)phenyl]methyl]carbamoyl)ethyl]piperazin-1-yl]ethoxy)-1,2-oxazol-5-yl]-3-methylbutanoyl]-4-hydroxy-N-[(1S)-1-[4-(4-methyl-1,3-thiazol-5-yl)phenyl]ethyl]pyrrolidine-2-carboxamide] here?
A: Its value is “A (“A” indicates maximum degradation ≥75%)”.

Q: What about the DC50 (HiBiT-BRM) of the same compound?
A: The DC50 was > 10 nM.

Q: And the DC50 (HiBit-BRG1)?
A: Its DC50 is > 100 nM.

Q: What about the Dmax (HiBit-BRG1) of the same compound?
A: Its Dmax is > 50%.

Q: Which “BRM HiBit Degradation Maximum (%)” value (HiBiT-BRM) does the source give for `Cc1ncsc1-c1ccc([C@H](C)NC(=O)[C@@H]2C[C@@H](O)CN2C(=O)[C@@H](c2cc(OCCN3CCC(C(=O)NCc4ccc(CCOc5cc(-c6ccccc6O)nnc5N)cc4)CC3)no2)C(C)C)cc1` [Compound 176, N-(4-(2-((3-amino-6-(2-hydroxyphenyl)pyridazin-4-yl)oxy)ethyl)benzyl)-1-(2-((5-((R)-1-((2S,4R)-4-hydroxy-2-(((S)-1-(4-(4-methylthiazol-5-yl)phenyl)ethyl)carbamoyl)pyrrolidin-1-yl)-3-methyl-1-oxobutan-2-yl)isoxazol-3-yl)oxy)ethyl)piperidine-4-carboxamide] here?
A: Its value is “A (“A” indicates maximum degradation ≥75%)”.

Q: What about the DC50 (HiBiT-BRM) of the same compound?
A: The DC50 was > 10 nM.

Q: And the DC50 (HiBit-BRG1)?
A: Its DC50 is > 100 nM.

Q: What about the Dmax (HiBit-BRG1) of the same compound?
A: The Dmax was > 75%.

Q: What does the source list for `Cc1ncsc1-c1ccc([C@H](C)NC(=O)[C@@H]2C[C@@H](O)CN2C(=O)[C@@H](c2cc(OCCN3CCC(CC(=O)NCc4ccc(CCOc5cc(-c6ccccc6O)nnc5N)cc4)CC3)no2)C(C)C)cc1` [Compound 177, (2S,4R)-1-((R)-2-(3-(2-(4-(2-((4-(2-((3-amino-6-(2-hydroxyphenyl)pyridazin-4-yl)oxy)ethyl)benzyl)amino)-2-oxoethyl)piperidin-1-yl)ethoxy)isoxazol-5-yl)-3-methylbutanoyl)-4-hydroxy-N-((S)-1-(4-(4-methylthiazol-5-yl)phenyl)ethyl)pyrrolidine-2-carboxamide]?
A: BRM HiBit Degradation Maximum (%) (HiBiT-BRM): A (“A” indicates maximum degradation ≥75%); DC50 (HiBiT-BRM): > 100 nM; DC50 (HiBit-BRG1): > 1000 nM; Dmax (HiBit-BRG1): > 75%

Q: With `Cc1ncsc1-c1ccc([C@H](C)NC(=O)[C@@H]2C[C@@H](O)CN2C(=O)[C@@H](c2cc(OCCN3CC(C(=O)NCc4ccc(CCOc5cc(-c6ccccc6O)nnc5N)cc4)C3)no2)C(C)C)cc1` [Compound 178, (2S,4R)-1-((R)-2-(3-(2-(3-((4-(2-((3-amino-6-(2-hydroxyphenyl)pyridazin-4-yl)oxy)ethyl)benzyl)carbamoyl)azetidin-1-yl)ethoxy)isoxazol-5-yl)-3-methylbutanoyl)-4-hydroxy-N-((S)-1-(4-(4-methylthiazol-5-yl)phenyl)ethyl)pyrrolidine-2-carboxamide] as the compound, how does the “BRM HiBit Degradation Maximum (%)” value (HiBiT-BRM) read?
A: The value was “A (“A” indicates maximum degradation ≥75%)”.

Q: What about the DC50 (HiBiT-BRM) of the same compound?
A: The DC50 was > 100 nM.

Q: What about the DC50 (HiBit-BRG1) of the same compound?
A: Its DC50 is > 100 nM.

Q: What about the Dmax (HiBit-BRG1) of the same compound?
A: Its Dmax is > 75%.

Q: Which results are given for `Cc1ncsc1-c1ccc(CNC(=O)[C@@H]2C[C@@H](O)CN2C(=O)[C@@H](NC(=O)CCN2CCN(CC(=O)NCc3ccc(CCOc4cc(-c5ccccc5O)nnc4N)cc3)CC2)C(C)(C)C)cc1` [Compound 179, (2S,4R)-1-[(2S)-2-(3-[4-[([[4-(2-[[3-amino-6-(2-hydroxyphenyl)pyridazin-4-yl]oxy]ethyl)phenyl]methyl]carbamoyl)methyl]piperazin-1-yl]propanamido)-3,3-dimethylbutanoyl]-4-hydroxy-N-[[4-(4-methyl-1,3-thiazol-5-yl)phenyl]methyl]pyrrolidine-2-carboxamide]?
A: BRM HiBit Degradation Maximum (%) (HiBiT-BRM): C (“C” indicates maximum degradation <50%); DC50 (HiBiT-BRM): > 1000 nM; DC50 (HiBit-BRG1): > 1000 nM; Dmax (HiBit-BRG1): < 50%

Q: What does the source list for `Cc1ncsc1-c1ccc(CNC(=O)[C@@H]2C[C@@H](O)CN2C(=O)[C@@H](NC(=O)CCN2CCC(C(=O)NCc3ccc(CCOc4cc(-c5ccccc5O)nnc4N)cc3)CC2)C(C)(C)C)cc1` [Compound 180, N-(4-(2-((3-amino-6-(2-hydroxyphenyl)pyridazin-4-yl)oxy)ethyl)benzyl)-1-(3-(((S)-1-((2S,4R)-4-hydroxy-2-((4-(4-methylthiazol-5-yl)benzyl)carbamoyl)pyrrolidin-1-yl)-3,3-dimethyl-1-oxobutan-2-yl)amino)-3-oxopropyl)piperidine-4-carboxamide]?
A: BRM HiBit Degradation Maximum (%) (HiBiT-BRM): B (“B” indicates maximum degradation ≥50%); DC50 (HiBiT-BRM): > 1000 nM; DC50 (HiBit-BRG1): > 1000 nM; Dmax (HiBit-BRG1): < 50%

Q: How did the “BRM HiBit Degradation Maximum (%)” value (HiBiT-BRM) turn out when `Cc1ncsc1-c1ccc(CNC(=O)[C@@H]2C[C@@H](O)CN2C(=O)[C@@H](NC(=O)CCN2CCC(CC(=O)NCc3ccc(CCOc4cc(-c5ccccc5O)nnc4N)cc3)CC2)C(C)(C)C)cc1` [Compound 181, (2S,4R)-1-((S)-2-(3-(4-(2-((4-(2-((3-amino-6-(2-hydroxyphenyl)pyridazin-4-yl)oxy)ethyl)benzyl)amino)-2-oxoethyl)piperidin-1-yl)propanamido)-3,3-dimethylbutanoyl)-4-hydroxy-N-(4-(4-methylthiazol-5-yl)benzyl)pyrrolidine-2-carboxamide] was run?
A: The value was “C (“C” indicates maximum degradation <50%)”.

Q: And the DC50 (HiBiT-BRM)?
A: Its DC50 is > 1000 nM.

Q: What about the DC50 (HiBit-BRG1) of the same compound?
A: The DC50 was > 1000 nM.

Q: And the Dmax (HiBit-BRG1)?
A: The Dmax was < 50%.

Q: With `Cc1ncsc1-c1ccc(CNC(=O)[C@@H]2C[C@@H](O)CN2C(=O)[C@@H](NC(=O)CCN2CC(C(=O)NCc3ccc(CCOc4cc(-c5ccccc5O)nnc4N)cc3)C2)C(C)(C)C)cc1` [Compound 182, (2S,4R)-1-[(2S)-2-[3-[3-([[4-(2-[[3-amino-6-(2-hydroxyphenyl)pyridazin-4-yl]oxy]ethyl)phenyl]methyl]carbamoyl)azetidin-1-yl]propanamido]-3,3-dimethylbutanoyl]-4-hydroxy-N-[[4-(4-methyl-1,3-thiazol-5-yl)phenyl]methyl]pyrrolidine-2-carboxamide] as the compound, how does the “BRM HiBit Degradation Maximum (%)” value (HiBiT-BRM) read?
A: Its value is “C (“C” indicates maximum degradation <50%)”.

Q: And the DC50 (HiBiT-BRM)?
A: The DC50 was > 1000 nM.

Q: And the DC50 (HiBit-BRG1)?
A: The DC50 was > 1000 nM.

Q: What about the Dmax (HiBit-BRG1) of the same compound?
A: Its Dmax is < 50%.

Q: For `Cc1ncsc1-c1ccc(CNC(=O)[C@@H]2C[C@@H](O)CN2C(=O)[C@@H](NC(=O)CCN2CC(CC(=O)NCc3ccc(CCOc4cc(-c5ccccc5O)nnc4N)cc3)C2)C(C)(C)C)cc1` [Compound 183, (2S,4R)-1-[(2S)-2-(3-[3-[([[4-(2-[[3-amino-6-(2-hydroxyphenyl)pyridazin-4-yl]oxy]ethyl)phenyl]methyl]carbamoyl)methyl]azetidin-1-yl]propanamido)-3,3-dimethylbutanoyl]-4-hydroxy-N-[[4-(4-methyl-1,3-thiazol-5-yl)phenyl]methyl]pyrrolidine-2-carboxamide], which “BRM HiBit Degradation Maximum (%)” value (HiBiT-BRM) is on record?
A: Its value is “C (“C” indicates maximum degradation <50%)”.

Q: And the DC50 (HiBiT-BRM)?
A: Its DC50 is > 1000 nM.

Q: What about the DC50 (HiBit-BRG1) of the same compound?
A: The DC50 was > 1000 nM.

Q: What about the Dmax (HiBit-BRG1) of the same compound?
A: The Dmax was < 50%.

Q: Which “BRM HiBit Degradation Maximum (%)” value (HiBiT-BRM) does the source give for `Cc1ncsc1-c1ccc(CNC(=O)[C@@H]2C[C@@H](O)CN2C(=O)[C@@H](NC(=O)CCN2C[C@@H]3[C@H](C2)[C@H]3C(=O)NCc2ccc(CCOc3cc(-c4ccccc4O)nnc3N)cc2)C(C)(C)C)cc1` [Compound 184, (1R,5S,6S)-N-[[4-(2-[[3-amino-6-(2-hydroxyphenyl)pyridazin-4-yl]oxy]ethyl)phenyl]methyl]-3-(2-[[(2S)-1-[(2S,4R)-4-hydroxy-2-([[4-(4-methyl-1,3-thiazol-5-yl)phenyl]methyl]carbamoyl)pyrrolidin-1-yl]-3,3-dimethyl-1-oxobutan-2-yl]carbamoyl]ethyl)-3-azabicyclo[3.1.0]hexane-6-carboxamide] here?
A: The value was “B (“B” indicates maximum degradation ≥50%)”.

Q: What about the DC50 (HiBiT-BRM) of the same compound?
A: Its DC50 is > 1000 nM.

Q: And the DC50 (HiBit-BRG1)?
A: Its DC50 is > 1000 nM.

Q: And the Dmax (HiBit-BRG1)?
A: Its Dmax is < 50%.
